Source: US12251382B2, “Substituted amino-pyrimidine compound for use in a method for treatment and prevention of multiple sclerosis” (Merck Patent GmbH, priority 2018, dated 2025)

Test: Phase I Part 1: plasma pharmacokinetics after single oral dose
Format: in vivo, human
Conditions: for MRT / AUC0−∞ / Cmax / T1/2: geometric mean
Experimental: To test dose proportionality, PK parameters were analyzed graphically as AUC/dose and Cmax/dose and via a power model (PK parameter=α*dose^β) approach with log-transformed PK parameters as the dependent variable and log-transformed dose as the independent variable.

## C=CC(=O)N1CCC(CNc2ncnc(N)c2-c2ccc(Oc3ccccc3)cc2)CC1 [Evobrutinib, 1-(4-(((6-amino-5-(4-phenoxyphenyl)pyrimidin-4-yl)amino)methyl)piperidin-1-yl)prop-2-en-1-one]
350 and 500 mg, some (n=3) subjects
  Time after dosing up to which concentrations above LLOQ were measurable: up to 48 h
Both sexes, human, plasma, oral, all doses, read-out: Relevant Vz/F
  Vd/F: ~650 L
human, plasma, oral, single dose 25 mg
  MRT: 1.82 h
human, plasma, oral, single dose 50 mg
  MRT: 1.82 h
human, plasma, oral, single dose 100 mg
  MRT: 1.7 h
human, plasma, oral, single dose 200 mg
  MRT: 1.8 h
human, plasma, oral, single dose 350 mg
  MRT: 2.26 h
human, plasma, oral, single dose 500 mg
  MRT: 2.19 h
humans
  PK profile in words (clearance, Vz/f, t1/2): moderate-to-high plasma clearance, medium Vz/f, and short t1/2
Range across single doses
  Apparent clearance (CL/F): 2,553-3,995 mL/min
Single dose 25 mg
  AUC0−∞: 104 ng·h/mL
  Cmax: 69.9 ng/mL
  T1/2: 1.80 h
Single dose 50 mg
  AUC0−∞: 326 ng·h/mL
  Cmax: 234 ng/mL
  T1/2: 2.06 h
Single dose 100 mg
  AUC0−∞: 434 ng·h/mL
  Cmax: 309 ng/mL
  T1/2: 2.56 h
Single dose 200 mg
  AUC0−∞: 856 ng·h/mL
  Cmax: 555 ng/mL
  T1/2: 2.09 h
Single dose 350 mg
  AUC0−∞: 1,910 ng * h/mL
  Cmax: 846 ng/mL
  T1/2: 6.81 h
Single dose 500 mg
  AUC0−∞: 3,220 ng * h/mL
  Cmax: 1510 ng/mL
  T1/2: 6.63 h
Single doses 25-200 mg
  Apparent geometric mean terminal half-life (t1/2): 1.8 to 2.6 h
Single doses 350 and 500 mg
  Apparent geometric mean terminal half-life (t1/2): 6.6 to 6.8 h
Within 8 h, dose-independent
  Plasma concentration remaining after Cmax: less than 1 % of Cmax
Within the first 8 h, all doses
  Relevant t1/2: ~2 h
